Assays:
[1] = target: T1, human 5HT2C receptor (Homo sapiens, UniProt P28335); experiment: Intracellular IP3 accumulation assay, 5HT2C; assay type: cell-based; details: HEK293 cells transfected with human 5HT2C receptor cDNA; read-out: 5HT2C (EC50) IP Accumulation Assay
T1 construct: expressed in transfected cells; host or cells: HEK293
T1 sequence (P28335 33-458): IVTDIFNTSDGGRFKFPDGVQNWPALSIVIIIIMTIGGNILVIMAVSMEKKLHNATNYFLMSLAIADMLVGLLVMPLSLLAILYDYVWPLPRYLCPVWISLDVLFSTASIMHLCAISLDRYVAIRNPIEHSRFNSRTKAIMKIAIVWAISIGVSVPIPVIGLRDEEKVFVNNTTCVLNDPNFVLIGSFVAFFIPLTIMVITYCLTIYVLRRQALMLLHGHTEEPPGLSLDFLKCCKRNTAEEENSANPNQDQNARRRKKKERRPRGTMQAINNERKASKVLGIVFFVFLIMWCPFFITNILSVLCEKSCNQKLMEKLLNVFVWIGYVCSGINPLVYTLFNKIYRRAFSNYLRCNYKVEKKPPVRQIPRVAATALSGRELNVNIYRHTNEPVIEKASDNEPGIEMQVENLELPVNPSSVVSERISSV
Experimental: Intracellular IP3 Accumulation Assay:
HEK293 cells were transfected in 15 cm sterile dishes with or without (control) 16 ug of human 5HT2C receptor cDNA [for example see, Saltzman, A. G., et al. Biochem. Biophys. Res. Commun. 181, 1469-1478 (1991)] using 25 ul of lipofectamine. Cells were then incubated for 3-4 hours at 37° C./5% CO2 and then transfection media was removed and replaced with 100 ul of DMEM. Cells were then plated onto 100 cm sterile dishes. The next day cells were plated into 96 well PDL microtiter plates at a density of 55 K/0.2 mL. Six hours latter, media was exchanged with [^3H]inositol (0.25 uCi/well) in inositol free DMEM and plates were incubated at 37° C./5% CO2 overnight. The next day, wells were aspirated and 200 ul of DMEM containing test compound, 10 uM pargyline, and 10 mM LiCl was added to appropriate wells. Plates were then incubated at 37° C./5% CO2 for three hours followed aspiration and by addition of fresh ice cold stop solution (1M KOH, 19 mM Na-borate, 3.8 mM EDTA) to each well. Plates were kept on ice for 5-10 min and the wells were neutralized by addition of 200 ul of fresh ice cold neutralization solution (7.5% HCl). Plates were then frozen until further processing is desired. The lysate was then transferred into 1.5 mL Eppendorf tubes and 1 mL of chloroform/methanol (1:2) was added/tube. […]

[2] = target: 5HT2A receptor (Homo sapiens, UniProt P28223); experiment: EC50 against the 5HT2A receptor (selectivity); assay type: cell-based
Sequence of 5HT2A receptor (P28223 whole entry): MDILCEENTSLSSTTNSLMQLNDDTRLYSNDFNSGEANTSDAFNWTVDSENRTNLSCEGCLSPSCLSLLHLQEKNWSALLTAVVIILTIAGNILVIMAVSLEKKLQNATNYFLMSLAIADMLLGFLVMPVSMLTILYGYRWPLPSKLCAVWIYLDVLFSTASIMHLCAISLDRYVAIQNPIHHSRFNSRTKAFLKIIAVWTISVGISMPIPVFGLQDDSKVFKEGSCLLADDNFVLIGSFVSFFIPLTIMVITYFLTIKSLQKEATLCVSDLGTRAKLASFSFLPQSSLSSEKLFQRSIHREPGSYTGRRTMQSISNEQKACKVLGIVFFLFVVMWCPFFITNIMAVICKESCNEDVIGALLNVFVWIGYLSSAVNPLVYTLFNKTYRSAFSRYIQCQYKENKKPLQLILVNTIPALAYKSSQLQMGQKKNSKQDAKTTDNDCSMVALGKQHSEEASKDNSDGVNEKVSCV

[3] = target: 5HT2B receptor (Homo sapiens, UniProt P41595); experiment: Activity against the 5HT2B receptor (selectivity); assay type: cell-based
Sequence of 5HT2B receptor (P41595 whole entry): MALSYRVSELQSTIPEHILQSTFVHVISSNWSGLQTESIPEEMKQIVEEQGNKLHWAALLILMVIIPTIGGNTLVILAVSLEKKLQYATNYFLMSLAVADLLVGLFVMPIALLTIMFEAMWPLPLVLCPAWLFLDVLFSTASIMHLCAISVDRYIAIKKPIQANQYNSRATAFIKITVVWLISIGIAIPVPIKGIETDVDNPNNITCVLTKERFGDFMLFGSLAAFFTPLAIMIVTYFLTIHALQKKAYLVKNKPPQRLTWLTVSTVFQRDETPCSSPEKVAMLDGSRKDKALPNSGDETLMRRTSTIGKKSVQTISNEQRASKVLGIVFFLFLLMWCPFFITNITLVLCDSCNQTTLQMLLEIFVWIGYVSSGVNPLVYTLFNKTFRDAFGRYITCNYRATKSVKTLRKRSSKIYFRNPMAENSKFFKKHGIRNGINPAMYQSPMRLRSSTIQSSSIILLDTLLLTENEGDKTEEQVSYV

[4] = test system: amyloid precursor protein (APPs) secretion; details: guinea pigs, repeat administration; cited from earlier work

SMILES | EC50 [1] [nM] | EC50 [2] [nM] | activity against the 5HT2B receptor [3] | amyloid precursor protein (APPs) secretion [4] | levels of Aβ production in vivo [4]
Fc1cc(-c2ccsc2)cc(N2CCNCC2)c1 [Compound 1, 1-(3-Fluoro-5-thiophen-3-yl-phenyl)-piperazine] | 7 | > 10000 | essentially inactive |  | 
C[C@H](N)Cc1cccc(C(F)(F)F)c1 [dexnorfenfluramine] |  |  |  | stimulated | reducing levels
Fc1ccc(-c2ccccc2)cc1N1CCNCC1 [Compound 10, 1-(4-Fluoro-biphenyl-3-yl)-piperazine] | 21 |  | essentially inactive |  | 

Source: patent US20080119477A1, “N-Biaryl and N-Arylheteroaryl Piperazine Derivatives as Modulators of the 5Ht2c Receptor Useful For the Treatment of Disorders Related Thereto” (priority 2004, published 2008)
